Consider 87 compounds from the RepoRT retention time repository (doi:10.1021/ac300829f).

A short description of the data set: RP, Thermo Scientific Hypersil GOLD, 150 × 2.1 mm, 1.9 µm, 0.5 mL/min, estimated dead time 0.66 min; A: water + 0.1% formic acid, pH 3; B: acetonitrile + 0.1% formic acid, pH 3; gradient (min/%B) 0/0 2/0 13/100 15.5/100 19/0. The settings on record: stereoisomer not certain.
For the compound `CCCCCC(=O)OC(CC(=O)[O-])C[N+](C)(C)C` (configuration not stated) [hexanoylcarnitine], the LC retention time was 6.6 min.
Next, `O=C(O)c1cc(=O)c2cccc(O)c2[nH]1` [xanthurenic acid]: 5.2 min; `CC(=O)NCCC(=O)NC(Cc1cnc[nH]1)C(=O)O` (configuration not stated) [N-acetylcarnosine]: 1.1 min.
With `NC(=O)CCC(NC(=O)Cc1c[nH]c2ccccc12)C(=O)O` (configuration not stated) [indoleacetyl glutamine] the figure was 6.1 min.
Next, `O=C(O)CNC(=O)C=Cc1ccccc1` [cinnamoylglycine]: 7 min.
For `NC(=O)c1cccnc1` [nicotinamide], the LC retention time was 1.1 min.
With `C[N+](C)(C)CC(CC(=O)[O-])OC(=O)CCCCC(=O)O` (configuration not stated) [adipoylcarnitine] the figure was 5.3 min; with `OCc1cccc(O)c1` [3-hydroxybenzyl alcohol], 5.1 min.
Next, `CC(=O)Nc1ccc(O)cc1` [acetaminophen]: 4.9 min; `Cc1ncc(CO)c(C(=O)O)c1O` [4-pyridoxic acid]: 5.6 min.
Turning to `Cc1ccc(C(=O)NCC(=O)O)cc1` [4-methylhippuric acid (para-methylhippuric acid)], the LC retention time was 6.7 min.
Next, `Cn1c(=O)[nH]c2[nH]c(=O)n(C)c2c1=O` [1,7-dimethyluric acid]: 5 min.
With `CSCCC(N)C(=O)O` (configuration not stated) [methionine] the figure was 1.1 min.
Next, `CCCCCC=CC(=O)OC(CC(=O)[O-])C[N+](C)(C)C` (configuration not stated) [octenoylcarnitine]: 7.3 min; `COC(=O)CCCCC(=O)O` [mono-methyl-adipate]: 6.3 min; `NCCc1c[nH]c2ccccc12` [tryptamine]: 5.7 min.
`O=C(O)CC(=O)O` [malonic acid]: the LC retention time is 1.04 min.
Next, `O=C(O)CNC(=O)c1ccccc1O` [o-hydroxyhippuric acid]: 6.5 min; `CC(C)C(=O)NCC(=O)O` [N-isobutyrylglycine]: 4.1 min; `CN(CC(=O)O)C(=N)N` [creatine]: 1 min.
Next, `Cc1cnc(=O)[nH]c1N` [5-methylcytosine]: 1 min; `NC(=O)CCC(N)C(=O)O` (configuration not stated) [glutamine]: 0.9 min.
With `CN1CCCC1c1cccnc1` (configuration not stated) [nicotine] the figure was 1.1 min.
Turning to `CC(C)CC(=O)C(=O)O` [4-methyl-2-oxovaleric acid (ketoleucine)], the LC retention time was 5.7 min.
Next, `CCCCCCCCC(=O)OC(CC(=O)[O-])C[N+](C)(C)C` (configuration not stated) [nonanoylcarnitine]: 8.1 min; `CC=C(C)C(=O)NCC(=O)O` [tiglylglycine]: 5.2 min.
As for `O=C1CCNC(=O)N1` [5,6-dihydrouracil], the LC retention time was 1.1 min.
With `O=C(OC1OC(C(=O)O)C(O)C(O)C1O)c1c[nH]c2ccccc12` (configuration not stated) [3-indole carboxylic acid glucuronide] the figure was 6.3 min.
In the case of `NCc1[nH]cc(CCC(=O)O)c1CC(=O)O` [porphobilinogen], the LC retention time is 4.7 min.
Next, `CC(=O)NC(CC(=O)O)C(=O)O` (configuration not stated) [N-acetylaspartic acid]: 1.1 min; `NC(Cc1cnc[nH]1)C(=O)O` (configuration not stated) [histidine]: 0.8 min.
Next, `O=C(O)CNC(=O)c1ccccc1` [hippuric acid]: 5.8 min; `CCC(C)(O)C(=O)O` (configuration not stated) [2-hydroxy-2-methylbutyric acid (2-hydroxyisovaleric acid)]: 4.6 min.
Turning to `CC12CCC(=O)C=C1CCC1C2CCC2(C)C(OC3OC(C(=O)O)C(O)C(O)C3O)CCC12` (configuration not stated) [testosterone glucuronide], the LC retention time was 7.9 min.
For `CC(=O)NC(C)C(=O)O` (configuration not stated) [acetylalanine], the LC retention time is 1.8 min.
Next, `Cc1ncc(C=O)c(CO)c1O` [pyridoxal  isomer]: 1.1 min; `O=C(O)CC(Nc1ncnc2c1ncn2C1OC(CO)C(O)C1O)C(=O)O` (configuration not stated) [succinyladenosine]: 4.8 min; `CC(=O)NCCCCN` [N-acetylputrescine]: 1.1 min.
With `NC(Cc1ccc(O)cc1)C(=O)O` (configuration not stated) [tyrosine] the figure was 1.1 min; with `NC(Cc1ccccc1)C(=O)O` (configuration not stated) [phenylalanine], 4.4 min.
Next, `CC12CCC(=O)C=C1CCC1C2CCC2(C)C(C(=O)CO)CCC12` (configuration not stated) [deoxycorticosterone]: 9.6 min; `CC(=O)Nc1ccc(OC2OC(C(=O)O)C(O)C(O)C2O)cc1` (configuration not stated) [acetaminophene glucuronide]: 4.2 min.
As to `CC(=O)Nc1ccn(C2OC(CO)C(O)C2O)c(=O)n1` (configuration not stated) [N4-acetylcytidine], the LC retention time is 4.6 min.
Next, `CCCCCCCC(C(=O)O)C(=O)O` [heptylmalonic acid]: 6.1 min; `CNc1nc2c(ncn2C2OC(CO)C(O)C2O)c(=O)[nH]1` (configuration not stated) [N2-methylguanosine]: 4.4 min; `CC(CCC(=O)O)C1CCC2C3C(O)CC4CC(O)CCC4(C)C3CC(O)C12C` (configuration not stated) [cholic acid]: 9.2 min.
Next, `O=C(O)CNC(=O)c1cccc(O)c1` [m-hydroxyhippuric acid]: 6.1 min; `NC(N)=NCCCC(N)C(=O)O` (configuration not stated) [arginine]: 0.9 min; `Nc1ccc(O)cc1` [4-aminophenol]: 1.1 min.
Next, `Nc1ncnc2c1ncn2C1OC2COP(=O)(O)OC2C1O` (configuration not stated) [cyclic AMP]: 1 min; `[NH3+]CCCCCC(=O)[O-]` [6-aminocaproic acid]: 1 min; `OCC1OC(O)C(O)C(O)C1O` (configuration not stated) [hexose]: 0.9 min.
Take `O=C(O)Cc1c[nH]c2ccc(O)cc12` [5-hydroxyindoleacetic acid]: the LC retention time was 5.7 min.
With `CC12CCC3C(CCC4CC(OC5OC(C(=O)O)C(O)C(O)C5O)CCC43C)C1CCC2=O` (configuration not stated) [androsterone glucuronide] the figure was 8.6 min; with `O=c1cc[nH]c(=O)[nH]1` [uracil], 1.2 min; with `CCC(=O)OC(CC(=O)[O-])C[N+](C)(C)C` (configuration not stated) [propionylcarnitine], 3.6 min.
Next, `CCOC(=O)c1ccccc1C(=O)O` [monoethyl phthalate]: 7.6 min.
Consider `CN1C(=O)C(O)CC1c1cccnc1` (stereo not drawn) [trans-3-hydroxycotinine], for which the LC retention time is 1.1 min.
As to `O=C(O)CNC(=O)C1=CCCCC1` [tetrahydrohippuric acid], the LC retention time was 6.3 min.
As to `CCC(CCCCCC(=O)O)C(=O)O` (configuration not stated) [2-ethylsuberic acid], the LC retention time was 6.7 min.
With `CSCC(O)C(O)C(O)C=O` (configuration not stated) [5-methylthioribose] the figure was 1.1 min; with `Cc1cc2nc3c(=O)[nH]c(=O)nc-3n(CC(O)C(O)C(O)CO)c2cc1C` (configuration not stated) [riboflavin], 5.7 min; with `O=CCC(O)C(O)CO` (configuration not stated) [deoxyribose], 0.9 min.
With `Nc1ccnc(=O)[nH]1` [cytosine] the figure was 1.1 min; with `CC(C)(O)CC(=O)O` [3-hydroxy-3-methylbutyric acid (3-hydroxyisovaleric acid)], 4.2 min.
With `O=C(O)CCCCCCCCC(=O)O` [sebacic acid] the figure was 7.6 min; with `C[N+](C)(C)[O-]` [trimethylamine oxide], 0.9 min; with `NCCCCNCCCN` [spermidine], 0.8 min.
Regarding `NCCS(=O)(=O)O` [taurine], the LC retention time is 0.9 min.
With `O=C(C=Cc1ccc(O)c(O)c1)OC1CC(O)(C(=O)O)CC(O)C1O` (configuration not stated) [chlorogenic acid] the figure was 5.5 min; with `CC(=O)NC(Cc1ccccc1)C(=O)O` (configuration not stated) [N-acetylphenylalanine], 6.6 min.
With `CC(=O)NCCCNCCCCN` [N1-acetylspermidine] the figure was 0.9 min.
Next, `O=C(O)C(O)C(O)C(O)C(O)CO` (configuration not stated) [gluconic acid]: 0.9 min.
For the compound `O=C(O)CNC(=O)c1ccc(O)cc1` [p-hydroxyhippuric acid], the LC retention time is 4.9 min.
Take `NC(CO)C(=O)O` (configuration not stated) [serine]: the LC retention time was 0.9 min.
Next, `CCCC(=O)OC(CC(=O)[O-])C[N+](C)(C)C` (configuration not stated) [butyrylcarnitine]: 5 min; `Nc1nc2nc[nH]c2c(=O)[nH]1` [guanine]: 1.1 min; `CC(C)CC(N)C(=O)O` (configuration not stated) [leucine]: 1.1 min.
With `CC(=O)NCCc1c[nH]c2ccc(O)cc12` [N-acetyl-5-hydroxytryptamine (N-acetyl-serotonin)], the LC retention time was 5.8 min.
For the compound `C[N+]1(C)CCCC1C(=O)[O-]` (configuration not stated) [stachydrine (proline betaine)], the LC retention time was 1 min.
As for `Cn1c(=O)c2[nH]c(=O)[nH]c2n(C)c1=O` [1,3-dimethyluric acid], the LC retention time is 4.7 min.
As for `CCCCCC=CCC=CCCCCCCCC(=O)OCC(O)COP(=O)([O-])OCC[N+](C)(C)C` (configuration not stated) [1-linoleoylglycerophosphocholine GPCho(18:2)], the LC retention time was 11.2 min.
With `Cn1c(=O)c2c(ncn2C)n(C)c1=O` [caffeine] the figure was 5.6 min; with `OCc1ccccc1O` [2-hydroxybenzyl alcohol], 5.8 min; with `O=C(O)c1cccnc1` [nicotinic acid], 1.1 min.
With `NC(N)=NCC(=O)O` [guanidoacetic acid] the figure was 0.9 min; with `[NH3+]CC(=O)N1CCCC1C(=O)[O-]` (configuration not stated) [Gly-Pro], 1.1 min.
